The term IC50 denotes the concentration that inhibits the measured activity by half.

In one assay the test system is CD8-EGFR. The experiment in a line: Western blot of CD8-EGFR phosphorylation in SKMG3-CD8-EGFR cells. Type of assay: cell-based, human. The note with it: SKMG3 cells with stable expression of the CD8-EGFR. Here is the method:
The CD8 cDNA was a gift from Paula Kavathas (Yale University). The CD8-EGFR was constructed according to a strategy that generated a constitutively active IGF-1R (24). The extracellular domain of CD8 was PCR amplified with a 5′ XbaI and 3′ SalI restriction site and cloned in-frame with the intracellular kinase domain of EGFR using the pDCB5-EGFR plasmid. SKMG3-CD8-EGFR cells were generated by Lipofectamine (Life Technologies) transfection of the plasmid followed by selection with 500 μg/ml G418.

The next assay deals with U251 cells. The experiment in a line: Radiation clonogenic survival assay. The note with it: 10 μM NGI-1. Format: cell-based. Here is the method:
(§1) Radiation (XRT) doses of either 0, 2, 4, or 6 Gy were delivered with a Precision X-ray 320-kV orthovoltage unit at a dose rate of 2 Gy/45 seconds (PXI X-Ray Systems). Twenty-four hours following XRT cells were washed, trypsinized, and re-plated in triplicate wells to determine clonogenic survival. […] Growth rates were determined by CellTiter 96 Non-Radioactive Cell Proliferation Assay (Promega; Madison, Wis., USA) according to the manufacturer's directions. For each experiment one thousand cells were seeded in triplicate wells in 96-wells plates. The following day, cell cultures were treated with NGI-1 (1 μM), Temozolomide (TMZ, 10 μM), Etoposide (VP-16, 0.1 μM) or combinations for 5 days. Absorbance at 540 nm was measured using the spectrophotometric reading (BioTek Synergy 2; Winooski, Vt. USA).

The test system of another assay is T98G cells. The experiment in a line: Radiation clonogenic survival assay. Format: cell-based. Conditions: 10 μM NGI-1. Here is the method:
as §1

The next assay deals with D54 cells. The experiment in a line: Radiation clonogenic survival assay. Type of assay: cell-based. Here is the method: as §1
For another assay, the system named is H3255. The note with it: Lopez-Sambrooks et al., Nat Chem Biol. 2016; cited from earlier work.
For another assay, the system named is PC9-GR1. Kind of assay: Cell cycle distribution by flow cytometry. Format: cell-based. Conditions: NGI-1 for 24 h, printed 60% vs 40%. Here is the method:
(§2) For the assessment of cell cycle distribution, 1×10^6 cells were collected, washed once with ice-cold PBS and fixed in ice-cold 70% ethanol overnight at −20° C. Thereafter, cells were washed twice with PBS and incubated for 30 min at room temperature in 200 μL of Guava Cell Cycle Reagent (Guava Technologies). Cytofluorometric acquisitions were performed on a LSRII cytometer (BD Biosciences). First-line analysis was performed with Flow Jo software, upon gating of the events characterized by normal forward and side scatter parameters and discrimination of doublets in a FSC-A vs. FSC-H bivariate plot. Approximately 30,000 cells were analyzed per experiment, and the mean value was obtained from 3 independent assays.

The next assay has as its system HCC-827-GR cells. Kind of assay: Cell cycle distribution by flow cytometry. Type of assay: cell-based. Conditions: NGI-1 for 24 h, printed 75% vs 45%. Here is the method:
as §2
A general note: Flow cytometry measures light scatter and fluorescence of single cells or particles in a stream.

The subject of the next assay is PC9-GR2. The experiment in a line: Cell cycle distribution by flow cytometry. Format: cell-based. Conditions: NGI-1 for 24 h, printed 80% vs 60%. Here is the method: as §2
The test system of another assay is H1975. The experiment in a line: Cell cycle distribution by flow cytometry. The note with it: NGI-1 for 24 h, printed 40% vs 60%, higher value taken as NGI-1. Format: cell-based. Here is the method:
as §2

The next assay deals with H1975-OR cells. The experiment in a line: Cell cycle distribution by flow cytometry. Type of assay: cell-based. The note with it: NGI-1 for 24 h, printed 45% vs 75%, higher value taken as NGI-1. Here is the method:
as §2

A further assay relates to Calu-3. The experiment in a line: Lung cancer cell line viability screen. Type of assay: cell-based. The note with it: Homo sapiens; Calu-3, NSCLC, ErbB2 amplified; read-out: NGI-1 (IC50). Here is the method:
(§3) NGI-1 activity was screened in 94 lung cancer cell lines at the Center for Molecular Therapeutics at the Massachusetts General Hospital Center for Cancer Research with previously described methods (Garnett et al., Nature, 483(7391):570-5 (2012)). Briefly, cells were treated in 384-well microplates using 9 serial NGI-1 dilutions, returned to an incubator for 96 hours, then stained with 55 μg/ml resazurin (Sigma) prepared in Glutathione-free media for 4 hours. Fluorescent signal intensity was quantified with a plate reader at excitation and emission wavelengths of 535/595 nm to determine viability. Viability ratio across the 9 doses were fitted to determine the half maximal inhibitory concentration (IC50).

A further assay concerns A-427. Kind of assay: Lung cancer cell line viability screen. Format: cell-based. Conditions: Homo sapiens; A-427, NSCLC; read-out: NGI-1 (IC50). Here is the method: as §3
For another assay, the system named is LC-1F. Kind of assay: Lung cancer cell line viability screen. Format: cell-based. The note with it: NSCLC, read-out: NGI-1 (IC50). Here is the method: as §3
The next assay has as its system RERF-LC-Sq1. Kind of assay: Lung cancer cell line viability screen. Conditions: RERF-LC-Sq1, NSCLC; read-out: NGI-1 (IC50). Format: cell-based. Here is the method:
as §3

For the next assay, the system named is NCI-H1838. The experiment in a line: Lung cancer cell line viability screen. Type of assay: cell-based. The note with it: Homo sapiens; NCI-H1838, NSCLC, EGFR amplified; read-out: NGI-1 (IC50). Here is the method:
as §3

A further assay deals with BEN. The experiment in a line: Lung cancer cell line viability screen. The note with it: NSCLC, read-out: NGI-1 (IC50). Type of assay: cell-based. Here is the method: as §3
The next assay concerns RERF-LC-MS. Kind of assay: Lung cancer cell line viability screen. Format: cell-based. The note with it: NSCLC, read-out: NGI-1 (IC50). Here is the method:
as §3

The next assay has as its system PC-3 [JPC-3]. The experiment in a line: Lung cancer cell line viability screen. Format: cell-based. The note with it: NSCLC, EGFR 747-749 del, read-out: NGI-1 (IC50). Here is the method: as §3
Another assay has as its system EMC-BAC-1. The experiment in a line: Lung cancer cell line viability screen. The note with it: EMC-BAC-1, NSCLC, ErBB3 Y523C; read-out: NGI-1 (IC50). Format: cell-based. Here is the method: as §3
In the next assay the test system is IST-SL2. The experiment in a line: Lung cancer cell line viability screen. The note with it: IST-SL2, SCLC; 96 hours; read-out: NGI-1 (IC50). Type of assay: cell-based. Here is the method:
as §3

In a further assay the test system is NCI-H2110. Kind of assay: Lung cancer cell line viability screen. Format: cell-based. The note with it: NCI-H2110, SCLC; read-out: NGI-1 (IC50). Here is the method: as §3
In a further assay the target is T1, EGFR (Homo sapiens, UniProt P00533, DEL746-750).
T1 construct: endogenous in cells; host or cells: HCC827-GR NSCLC cells (MET amplified)
Type of assay: cell-based. Conditions: HCC827-GR cells.

As for `Cc1cnc(NC(=O)c2cc(S(=O)(=O)N(C)C)ccc2N2CCCC2)s1` [NGI-1, 5-(dimethylsulfamoyl)-N-(5-methyl-1,3-thiazol-2-yl)-2-(pyrrolidin-1-yl)benzamide], the “CD8-EGFR phosphorylation (phospho-Y1068, phospho-Y845)” value in the assay on CD8-EGFR is reported as “resistant”. The “effect on SF2Gy” value in the assay with U251 cells and in the assay on T98G cells was “unaffected” throughout. Further, the “dose enhancement factor (DEF) at a surviving fraction of 0.4” value with D54 cells (10 μM NGI-1) stood at 1.3. Moreover, the “survival fraction at 2 Gy (SF2Gy)” value in the assay with D54 cells (10 μM NGI-1 48 hours before radiation, 69% without NGI-1) worked out at 51%. The H3255 proliferation entry in the assay with H3255 is “significantly inhibits”. Further, the “cells in G1 (G1 arrest)” value in the assay with PC9-GR1 was determined as 60%; in the assay on HCC-827-GR cells it was 75%; with PC9-GR2, 80%; in the assay on H1975, 60%; in the assay with H1975-OR cells it was 75%. Besides, the IC50 stood at 8.71 µM in the assay with Calu-3; 4.92 µM in the assay on A-427; 7.94 µM in the assay on LC-1F; 7.39 µM with RERF-LC-Sq1; 4.29 µM in the assay on NCI-H1838; 9.72 µM in the assay on BEN. For the same compound, the IC50 in the assay on RERF-LC-MS amounted to 8.07 µM; in the assay with PC-3 [JPC-3] it was 4.9 µM; in the assay with EMC-BAC-1 it was 4.1 µM; in the assay with IST-SL2, 2.63 µM; with NCI-H2110 it was 9.01 µM. In addition, the EGFR phosphorylation entry at EGFR was “significantly reduced”.

These data come from US10765638B2, “Particle formulation with polycation complex” (Yale University, priority 2017, dated 2020).
